Measured values reported in paper PMC2921063 (Cancer Chemotherapy and Pharmacology, 2010).

Tests used:
rituximab = test: Cognate antibody binding to peptide beads, rituximab; conditions: 10 μm TentaGel beads; flow cytometry and fluorescent microscopy
[1] = Alemtuzumab bead-based detection in normal human serum; assay type: binding; conditions: alemtuzumab titrated into normal human serum; fluorescent secondary anti-human IgG; flow cytometry
alemtuzumab = test: Cognate antibody binding to peptide beads, alemtuzumab; conditions: 10 μm TentaGel beads; flow cytometry and fluorescent microscopy

ACPTSNPSLCGGGS [pRTX-10T]
antibody binding to peptide beads (rituximab): Specific cognate antibody binding was confirmed

alemtuzumab: anti-CD52 monoclonal antibody (Genzyme)
bead fluorescence vs alemtuzumab concentration [1]: fluorescent signals correlated with the alemtuzumab concentration

ACGSLSPSSCGGGS [pCp-1T]
antibody binding to peptide beads (alemtuzumab): Specific cognate antibody binding was confirmed
